This is an account of results in patent US20080176827A1, “New Pyridine Analogues VII 543” (ASTRAZENECA AB, priority 2007, published 2008).

One assay deals with T1, P2Y12 receptor (Homo sapiens, UniProt Q9H244).
T1 construct: expressed in transfected cells; host or cells: CHO cells (membranes)
T1 sequence (Q9H244 whole entry): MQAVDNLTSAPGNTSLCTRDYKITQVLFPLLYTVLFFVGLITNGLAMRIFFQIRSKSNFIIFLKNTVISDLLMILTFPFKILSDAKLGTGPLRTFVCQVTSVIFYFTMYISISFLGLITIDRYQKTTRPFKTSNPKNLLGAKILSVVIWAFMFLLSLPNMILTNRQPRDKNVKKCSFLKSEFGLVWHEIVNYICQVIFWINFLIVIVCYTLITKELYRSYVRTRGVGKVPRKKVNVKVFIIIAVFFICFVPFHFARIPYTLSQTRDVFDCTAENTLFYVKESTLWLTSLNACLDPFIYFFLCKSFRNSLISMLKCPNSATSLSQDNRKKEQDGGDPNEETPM
Description: Functional inhibition of 2-Me-S-ADP induced P2Y12 signalling (35S-GTPγS binding, membranes from P2Y12 transfected CHO-cells). As to conditions: EC80 agonist, CHO-cell membranes, read-out: IC50. It counts as biochemical. On the procedure:
Functional inhibition of-the P2Y12 receptor can be measured by in vitro assays using cell membranes from P2Y12 transfected CHO-cells, the methodology is indicated below. […] The reaction was allowed to proceed at 30° C. for 45 min. Samples were then transferred on to GF/B filters using a cell harvester and washed with wash buffer (50 mM Tris (pH 7.4), 5 mM MgCl2, 50 mM NaCl). Filters were then covered with scintilant and counted for the amount of ^35S-GTPγS retained by the filter. Maximum activity was that determined in the presence of the agonist and minimum activity in the absence of the agonist following subtraction of the value determined for non-specific activity. The effect of compounds at various concentrations was plotted according to the equation […]))) and IC50 estimated where A is the bottom plateau of the curve i.e. the final minimum y value B is the top of the plateau of the curve i.e. the final maximum y value C is the x value at the middle of the curve. […] Y is the original known y values. […] The reaction was allowed to proceed at 30° C. for 45 min. Samples were then transferred on to GF/B filters using a cell harvester and washed with wash buffer (50 mM Tris (pH 7.4), 5 mM MgCl2, 50 mM NaCl). Filters were then covered with scintilant and counted for the amount of ^35S-GTPγS retained by the filter. Maximum activity was that determined in the presence of the agonist and minimum activity in the absence of the agonist following subtraction of the value determined for non-specific activity. The effect of compounds at various concentrations was plotted according to the equation […]))) and IC50 estimated where A is the bottom plateau of the curve i.e. the final minimum y value B is the top of the plateau of the curve i.e. the final maximum y value C is the x value at the middle of the curve. […] Y is the original known y values.
For `CCOC(=O)c1cc(C#N)c(N2CCC(C(=O)NS(=O)(=O)Cc3ccccc3)C(C)C2)nc1C` (stereo not shown) [Example 5, Ethyl 6-{4-[(benzylsulfonyl)carbamoyl]-3-methylpiperidin-1-yl}-5-cyano-2-methylnicotinate], the IC50 stood at 0.07 µM.

The same assay, now with this note: EC80 agonist, CHO-cell membranes, value given in each example, read-out: GTPγS(IC50 μM).
In the case of `CCOC(=O)c1cc(C#N)c(N2CCC(CC(=O)NS(=O)(=O)Cc3ccccc3)C2)nc1C` (stereo not shown) [Example 1, Ethyl 6-(3-{2-[(benzylsulfonyl)amino]-2-oxoethyl}pyrrolidin-1-yl)-5-cyano-2-methylnicotinate], the half-maximal inhibitory concentration (IC50) was found to be 0.143 µM. The same measure, in the same setting: the result for `CCOC(=O)c1cc(C#N)c(N2CCC(CC(=O)NS(=O)(=O)CCc3ccccc3)C2)nc1C` (stereo not shown) [Example 2, Ethyl 5-cyano-2-methyl-6-[3-(2-oxo-2-{[(2-phenylethyl)sulfonyl]amino}ethyl)pyrrolidin-1-yl]nicotinate] reads 0.12 µM; that for `Cc1nc(N2CCC(C(=O)NS(=O)(=O)Cc3ccc(F)cc3)CC2)c(C#N)cc1C(=O)OCC(F)(F)F` [Example 3, 2,2,2-Trifluoroethyl 5-cyano-6-(4-{[(4-fluorobenzyl)sulfonyl]carbamoyl}piperidin-1-yl)-2-methylnicotinate], 0.024 µM. On to `CCOC(=O)c1cc(C#N)c(N2CC(C(=O)NS(=O)(=O)Cc3cc(C)ccc3F)C2)nc1C` [Example 4, Ethyl 5-cyano-6-(3-{[(2-fluoro-5-methylbenzyl)sulfonyl]carbamoyl}azetidin-1-yl)-2-methylnicotinate], for which the 50% inhibitory concentration (IC50) worked out at 0.018 µM. The same measure, in the same setting: the result for `CCOC(=O)c1cc(C#N)c(N2CCC(C(=O)NS(=O)(=O)Cc3ccccc3)C(C)C2)nc1C` (stereo not shown) [Example 5, Ethyl 6-{4-[(benzylsulfonyl)carbamoyl]-3-methylpiperidin-1-yl}-5-cyano-2-methylnicotinate] reads 0.067 µM; that for `CCOC(=O)c1cc(C#N)c(N2CCC(C(=O)NS(=O)(=O)Cc3ccccc3)CC2)nc1NC` [Example 6, Ethyl 6-{4-[(benzylsulfonyl)carbamoyl]piperidin-1-yl}-5-cyano-2-(methylamino)nicotinate], 0.044 µM. Still for that read-out and setting: next, `CCOC(=O)c1cc(C#N)c(N2CCC(C(=O)NS(=O)(=O)Cc3cc(C)ccc3F)CC2)nc1C` [Example 7, Ethyl 5-cyano-6-(4-{[(2-fluoro-5-methylbenzyl)sulfonyl]carbamoyl}piperidin-1-yl)-2-methylnicotinate]: 0.035 µM; `CCOC(=O)c1cc(C#N)c(N2CCC(C(=O)NS(=O)(=O)Cc3cccc(OC)c3)CC2)nc1C` [Example 8, Ethyl 5-cyano-6-(4-{[(3-methoxybenzyl)sulfonyl]carbamoyl}piperidin-1-yl)-2-methylnicotinate]: 0.074 µM. Still for that read-out and setting: the result for `CCOC(=O)c1cc(C#N)c(N2CC(C(=O)NS(=O)(=O)Cc3c(F)cccc3F)C2)nc1CC` [Example 9, Ethyl 5-cyano-6-(3-{[(2,6-difluorobenzyl)sulfonyl]carbamoyl}azetidin-1-yl)-2-ethylnicotinate] reads 0.046 µM; that for `CCOC(=O)c1cc(C#N)c(N2CC(C(=O)NS(=O)(=O)Cc3ccc(F)c(C)c3)C2)nc1CC` [Example 10, Ethyl 5-cyano-2-ethyl-6-(3-{[(4-fluoro-3-methylbenzyl)sulfonyl]carbamoyl}azetidin-1-yl)nicotinate], 0.064 µM. In the case of `CCOC(=O)c1cc(C#N)c(N2CC(C(=O)NS(=O)(=O)Cc3ccc(F)cc3Cl)C2)nc1CC` [Example 11, Ethyl 6-(3-{[(2-chloro-4-fluorobenzyl)sulfonyl]carbamoyl}azetidin-1-yl)-5-cyano-2-ethylnicotinate], the IC50 is 0.036 µM.

As for `CCOC(=O)c1cc(C#N)c(N2CCC(C(=O)NS(=O)(=O)Cc3cc(F)ccc3C)CC2)nc1C` [Example 12, Ethyl 5-cyano-6-(4-{[(5-fluoro-2-methylbenzyl)sulfonyl]carbamoyl}piperidin-1-yl)-2-methylnicotinate], the IC50 was found to be 0.49 µM. Same read-out and setting: the result for `CCOC(=O)c1cc(C#N)c(N2CCC(C(=O)NS(=O)(=O)Cc3c(F)ccc(F)c3F)CC2)nc1C` [Example 13, ethyl 5-cyano-2-methyl-6-(4-{[(2,3,6-trifluorobenzyl)sulfonyl]carbamoyl}piperidin-1-yl)nicotinate] reads 0.071 µM; that for `CCOC(=O)c1cc(C#N)c(N2CCC(C(=O)NS(=O)(=O)Cc3ccc(F)cc3F)CC2)nc1C` [Example 14, Ethyl 5-cyano-6-(4-{[(2,4-difluorobenzyl)sulfonyl]carbamoyl}piperidin-1-yl)-2-methylnicotinate], 0.016 µM. On the same count and under the same terms, the result for `CCOC(=O)c1cc(C#N)c(N2CCC(C(=O)NS(=O)(=O)Cc3c(F)cccc3F)CC2)nc1CC` [Example 15, Ethyl 5-cyano-6-(4-{[(2,6-difluorobenzyl)sulfonyl]carbamoyl}piperidin-1-yl)-2-ethylnicotinate] reads 0.048 µM.

`CCOC(=O)c1cc(C#N)c(N2CCC(C(=O)NS(=O)(=O)Cc3ccc(F)cc3Cl)CC2)nc1CC` [Example 16, Ethyl 6-(4-{[(2-chloro-4-fluorobenzyl)sulfonyl]carbamoyl}piperidin-1-yl)-5-cyano-2-ethylnicotinate]: the IC50 amounted to 0.211 µM. The same measure, in the same setting: the result for `CCOC(=O)c1cc(C#N)c(N2CCC(C(=O)NS(=O)(=O)Cc3c(F)ccc(F)c3F)CC2)nc1CC` [Example 17, Ethyl 5-cyano-2-ethyl-6-(4-{[(2,3,6-trifluorobenzyl)sulfonyl]carbamoyl}piperidin-1-yl)nicotinate] reads 0.097 µM; that for `CCOC(=O)c1cc(C#N)c(N2CCC(C(=O)NS(=O)(=O)Cc3ccc(F)cc3F)CC2)nc1CC` [Example 18, Ethyl 5-cyano-6-(4-{[(2,4-difluorobenzyl)sulfonyl]carbamoyl}piperidin-1-yl)-2-ethylnicotinate], 0.02 µM. On the same count and under the same terms, the result for `CCOC(=O)c1cc(C#N)c(N2CC(C(=O)NS(=O)(=O)Cc3ccc(F)cc3F)C2)nc1C` [Example 20, Ethyl 5-cyano-6-(3-{[(2,4-difluorobenzyl)sulfonyl]carbamoyl}azetidin-1-yl)-2-methylnicotinate] reads 0.035 µM. Still for that read-out and setting: the result for `CCOC(=O)c1cc(C#N)c(N2CC(C(=O)NS(=O)(=O)Cc3ccc(F)cc3F)C2)nc1CC` [Example 21, Ethyl 5-cyano-6-(3-{[(2,4-difluorobenzyl)sulfonyl]carbamoyl}azetidin-1-yl)-2-ethylnicotinate] reads 0.03 µM; that for `CCOC(=O)c1cc(C#N)c(N2CC(C(=O)NS(=O)(=O)Cc3ccc(F)cc3)C2)nc1CC` [Example 22, Ethyl 5-cyano-2-ethyl-6-(3-{[(4-fluorobenzyl)sulfonyl]carbamoyl}azetidin-1-yl)nicotinate], 0.041 µM; that for `CCOC(=O)c1cc(C#N)c(N2CC(C(=O)NS(=O)(=O)Cc3ccc(Cl)cc3)C2)nc1CC` [Example 23, Ethyl 6-(3-{[(4-chlorobenzyl)sulfonyl]carbamoyl}azetidin-1-yl)-5-cyano-2-ethylnicotinate], 0.022 µM.

On to `CCOC(=O)c1cc(C#N)c(N2CCC(C(=O)NS(=O)(=O)Cc3ccc(F)cc3)CC2)nc1CC` [Example 24, Ethyl 5-cyano-2-ethyl-6-(4-{[(4-fluorobenzyl)sulfonyl]carbamoyl}piperidin-1-yl)nicotinate], for which the IC50 was determined as 0.036 µM. The same measure, in the same setting: the result for `CCOC(=O)c1cc(C#N)c(N2CCC(C(=O)NS(=O)(=O)Cc3ccc(Cl)cc3)CC2)nc1CC` [Example 25, Ethyl 6-(4-{[(4-chlorobenzyl)sulfonyl]carbamoyl}piperidin-1-yl)-5-cyano-2-ethylnicotinate] reads 0.04 µM; that for `CCOC(=O)c1cc(C#N)c(N2CC(C(=O)NS(=O)(=O)Cc3ccccc3F)C2)nc1C` [Example 26, Ethyl 5-cyano-6-(3-{[(2-fluorobenzyl)sulfonyl]carbamoyl}azetidin-1-yl)-2-methylnicotinate], 0.035 µM. Same read-out and setting: the result for `CCOC(=O)c1cc(C#N)c(N2CCC(C(=O)NS(=O)(=O)Cc3ccccc3F)CC2)nc1C` [Example 27, Ethyl 5-cyano-6-(4-{[(2-fluorobenzyl)sulfonyl]carbamoyl}piperidin-1-yl)-2-methylnicotinate] reads 0.026 µM; that for `CCOC(=O)c1cc(C#N)c(N2CCC(C(=O)NS(=O)(=O)Cc3ccccc3)C(CCC(=O)OCc3ccccc3)C2)nc1C` (stereo not shown) [Example 28, Ethyl 6-{3-[3-(benzyloxy)-3-oxopropyl]-4-[(benzylsulfonyl)carbamoyl]piperidin-1-yl}-5-cyano-2-methylnicotinate], 0.442 µM.

For `CCOC(=O)c1cc(C#N)c(N2CCC(C(=O)NS(=O)(=O)Cc3ccc(F)cc3F)C(CCC(=O)OCc3ccccc3)C2)nc1C` (stereo not shown) [Example 29, Ethyl 6-(3-[3-(benzyloxy)-3-oxopropyl]-4-{[(2,4-difluorobenzyl)sulfonyl]carbamoyl}piperidin-1-yl)-5-cyano-2-methylnicotinate], the IC50 is 0.382 µM. On the same count and under the same terms, the result for `CCOC(=O)c1cc(C#N)c(N2CCC(C(=O)NS(=O)(=O)Cc3ccccc3)C(CCC(=O)O)C2)nc1C` (stereo not shown) [Example 30, 3-{4-[(Benzylsulfonyl)carbamoyl]-1-[3-cyano-5-(ethoxycarbonyl)-6-methylpyridin-2-yl]piperidin-3-yl}propanoic Acid] reads 0.057 µM; that for “Ethyl 6-(4-{[(4-chloro-2-fluorobenzyl)sulfonyl]carbamoyl}piperidin-1-yl)-5-cyano-2-ethylnicotinate [Example 19]”, 0.01 µM.
